Laboratory results from the supplement of paper PMC13207355.

Assays:
Settings in all cases: exposure time: 72 h
[1] = test system: E13 (patient-derived glioblastoma stem cells of classical subtype); test: surviving fraction (nuclei count normalised to DMSO); higher = more cells surviving (less toxic)
[2] = test system: E21 (patient-derived glioblastoma stem cells of mesenchymal subtype); test: as above
[3] = test system: E28 (patient-derived glioblastoma stem cells of classical subtype); test: as above
[4] = test system: E31 (patient-derived glioblastoma stem cells of proneural subtype); test: as above
[5] = test system: E34 (patient-derived glioblastoma stem cells of proneural subtype); test: as above
[6] = test system: E57 (patient-derived glioblastoma stem cells of mesenchymal subtype); test: as above
[7] = test system: FT3469 (normal neural stem cell line); test: as above
[8] = test system: E13; test: phenotypic distance (Euclidean, principal components) from DMSO controls (arbitrary units); higher = stronger morphological change
[9] = test system: E21; test: as above
[10] = test system: E28; test: as above
[11] = test system: E31; test: as above
[12] = test system: E34; test: as above
[13] = test system: E57; test: as above
[14] = test system: FT3469; test: as above
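For phenotypic distance (Euclidean, principal components) from DMSO controls in this document: cell Painting imaging in 384-well plates, CellProfiler features reduced to at least 20 principal components, Euclidean distance versus same-plate DMSO vehicle wells (0.1% v/v), median over six images per well.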
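For surviving fraction (nuclei count normalised to DMSO) in this document: nuclei counted by high-content imaging of Hoechst-stained cells in laminin-coated 384-well plates, relative to 0.1% DMSO vehicle wells, with staurosporine as cell-death control.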

COc1cc(/C=C/C(=O)N2CCC=CC2=O)cc(OC)c1OC [Piperlongumine]
Settings	phenotypic distance	surviving fraction
[1], 4.1 nM	–	0.958
[1], 12.3 nM	–	0.883
[1], 37 nM	–	1.05
[1], 111.1 nM	–	0.818
[1], 333.3 nM	–	0.823
[1], 1000 nM	–	0.88
[1], 3000 nM	–	0.767
[2], 4.1 nM	–	1.01
[2], 12.3 nM	–	0.979
[2], 37 nM	–	0.997
[2], 111.1 nM	–	0.997
[2], 333.3 nM	–	0.908
[2], 1000 nM	–	0.609
[2], 3000 nM	–	0.104
[3], 4.1 nM	–	1.02
[3], 12.3 nM	–	1.1
[3], 37 nM	–	1.13
[3], 111.1 nM	–	0.988
[3], 333.3 nM	–	1.03
[3], 1000 nM	–	0.538
[3], 3000 nM	–	0.256
[4], 4.1 nM	–	0.957
[4], 12.3 nM	–	1.09
[4], 37 nM	–	1.19
[4], 111.1 nM	–	1.12
[4], 333.3 nM	–	0.938
[4], 1000 nM	–	0.684
[4], 3000 nM	–	0.00892
[5], 4.1 nM	–	0.873
[5], 12.3 nM	–	0.984
[5], 37 nM	–	1.11
[5], 111.1 nM	–	1.04
[5], 333.3 nM	–	1.06
[5], 1000 nM	–	0.863
[5], 3000 nM	–	0.559
[6], 4.1 nM	–	1.02
[6], 12.3 nM	–	0.96
[6], 37 nM	–	1.03
[6], 111.1 nM	–	1.03
[6], 333.3 nM	–	1.06
[6], 1000 nM	–	1
[6], 3000 nM	–	0.285
[7], 4.1 nM	–	1.05
[7], 12.3 nM	–	0.946
[7], 37 nM	–	0.901
[7], 111.1 nM	–	0.983
[7], 333.3 nM	–	0.881
[7], 1000 nM	–	0.866
[7], 3000 nM	–	0.7
[8], 4.1 nM	0.433	–
[8], 12.3 nM	0.675	–
[8], 37 nM	0.516	–
[8], 111.1 nM	2.59	–
[8], 333.3 nM	0.883	–
[8], 1000 nM	0.903	–
[8], 3000 nM	1.87	–
[9], 4.1 nM	1.09	–
[9], 12.3 nM	0.626	–
[9], 37 nM	0.701	–
[9], 111.1 nM	0.313	–
[9], 333.3 nM	0.682	–
[9], 1000 nM	3.07	–
[9], 3000 nM	9.28	–
[10], 4.1 nM	0.727	–
[10], 12.3 nM	1.04	–
[10], 37 nM	0.697	–
[10], 111.1 nM	0.848	–
[10], 333.3 nM	0.74	–
[10], 1000 nM	2.27	–
[10], 3000 nM	5.12	–
[11], 4.1 nM	1.19	–
[11], 12.3 nM	0.591	–
[11], 37 nM	0.723	–
[11], 111.1 nM	0.471	–
[11], 333.3 nM	1.14	–
[11], 1000 nM	1.51	–
[11], 3000 nM	10.8	–
[12], 4.1 nM	1.26	–
[12], 12.3 nM	0.821	–
[12], 37 nM	1.16	–
[12], 111.1 nM	0.677	–
[12], 333.3 nM	0.524	–
[12], 1000 nM	0.889	–
[12], 3000 nM	1.82	–
[13], 4.1 nM	1.56	–
[13], 12.3 nM	0.849	–
[13], 37 nM	0.56	–
[13], 111.1 nM	0.314	–
[13], 333.3 nM	0.518	–
[13], 1000 nM	1.93	–
[13], 3000 nM	6.93	–
[14], 4.1 nM	0.686	–
[14], 12.3 nM	0.732	–
[14], 37 nM	0.828	–
[14], 111.1 nM	0.586	–
[14], 333.3 nM	1.07	–
[14], 1000 nM	1.12	–
[14], 3000 nM	3.88	–

O=C(CCBr)N1CCN(C(=O)CCBr)CC1 [Pipobroman]
Settings	phenotypic distance	surviving fraction
[1], 4.1 nM	–	0.929
[1], 12.3 nM	–	0.984
[1], 37 nM	–	1.02
[1], 111.1 nM	–	0.921
[1], 333.3 nM	–	0.977
[1], 1000 nM	–	0.982
[1], 3000 nM	–	0.98
[2], 4.1 nM	–	1.13
[2], 12.3 nM	–	0.912
[2], 37 nM	–	1.01
[2], 111.1 nM	–	0.966
[2], 333.3 nM	–	1.05
[2], 1000 nM	–	0.836
[2], 3000 nM	–	0.811
[3], 4.1 nM	–	0.961
[3], 12.3 nM	–	1.13
[3], 37 nM	–	0.966
[3], 111.1 nM	–	0.954
[3], 333.3 nM	–	0.979
[3], 1000 nM	–	0.931
[3], 3000 nM	–	0.713
[4], 4.1 nM	–	0.99
[4], 12.3 nM	–	0.958
[4], 37 nM	–	0.924
[4], 111.1 nM	–	0.976
[4], 333.3 nM	–	0.859
[4], 1000 nM	–	0.759
[4], 3000 nM	–	0.716
[5], 4.1 nM	–	1.03
[5], 12.3 nM	–	0.865
[5], 37 nM	–	1.08
[5], 111.1 nM	–	1.06
[5], 333.3 nM	–	1.01
[5], 1000 nM	–	0.892
[5], 3000 nM	–	1.1
[6], 4.1 nM	–	1.05
[6], 12.3 nM	–	1.02
[6], 37 nM	–	1.06
[6], 111.1 nM	–	1.07
[6], 333.3 nM	–	1.07
[6], 1000 nM	–	0.958
[6], 3000 nM	–	0.816
[7], 4.1 nM	–	1.12
[7], 12.3 nM	–	1.08
[7], 37 nM	–	0.946
[7], 111.1 nM	–	1
[7], 333.3 nM	–	1.05
[7], 1000 nM	–	0.961
[7], 3000 nM	–	0.86
[8], 4.1 nM	0.472	–
[8], 12.3 nM	0.7	–
[8], 37 nM	0.541	–
[8], 111.1 nM	0.407	–
[8], 333.3 nM	0.764	–
[8], 1000 nM	0.638	–
[8], 3000 nM	0.745	–
[9], 4.1 nM	0.8	–
[9], 12.3 nM	0.777	–
[9], 37 nM	0.578	–
[9], 111.1 nM	0.528	–
[9], 333.3 nM	0.76	–
[9], 1000 nM	0.889	–
[9], 3000 nM	2.2	–
[10], 4.1 nM	0.503	–
[10], 12.3 nM	0.763	–
[10], 37 nM	0.907	–
[10], 111.1 nM	0.719	–
[10], 333.3 nM	0.82	–
[10], 1000 nM	0.794	–
[10], 3000 nM	1.56	–
[11], 4.1 nM	0.424	–
[11], 12.3 nM	0.596	–
[11], 37 nM	0.531	–
[11], 111.1 nM	0.433	–
[11], 333.3 nM	0.574	–
[11], 1000 nM	1.19	–
[11], 3000 nM	1.45	–
[12], 4.1 nM	0.724	–
[12], 12.3 nM	0.45	–
[12], 37 nM	0.596	–
[12], 111.1 nM	0.698	–
[12], 333.3 nM	0.871	–
[12], 1000 nM	0.646	–
[12], 3000 nM	0.982	–
[13], 4.1 nM	0.542	–
[13], 12.3 nM	0.868	–
[13], 37 nM	0.587	–
[13], 111.1 nM	0.428	–
[13], 333.3 nM	0.404	–
[13], 1000 nM	0.464	–
[13], 3000 nM	1.79	–
[14], 4.1 nM	0.541	–
[14], 12.3 nM	0.755	–
[14], 37 nM	0.771	–
[14], 111.1 nM	0.734	–
[14], 333.3 nM	0.615	–
[14], 1000 nM	1.02	–
[14], 3000 nM	1.65	–

COc1cccc2c1C(=O)c1c(O)c3c(c(O)c1C2=O)C[C@@](O)(C(=O)CO)C[C@@H]3O[C@H]1C[C@H](N)[C@H](O[C@@H]2CCCCO2)[C@H](C)O1 [Pirarubicin]
Settings	phenotypic distance	surviving fraction
[1], 4.1 nM	–	0.384
[1], 12.3 nM	–	0.325
[1], 37 nM	–	0.263
[1], 111.1 nM	–	0.0805
[1], 333.3 nM	–	0.1
[1], 1000 nM	–	0.0786
[1], 3000 nM	–	0.0218
[2], 4.1 nM	–	0.251
[2], 12.3 nM	–	0.305
[2], 37 nM	–	0.194
[2], 111.1 nM	–	0.13
[2], 333.3 nM	–	0.0649
[2], 1000 nM	–	0.0703
[2], 3000 nM	–	0.0202
[3], 4.1 nM	–	0.322
[3], 12.3 nM	–	0.276
[3], 37 nM	–	0.244
[3], 111.1 nM	–	0.14
[3], 333.3 nM	–	0.347
[3], 1000 nM	–	0.209
[3], 3000 nM	–	0.0681
[4], 4.1 nM	–	0.141
[4], 12.3 nM	–	0.184
[4], 37 nM	–	0.101
[4], 111.1 nM	–	0.058
[4], 333.3 nM	–	0.107
[4], 1000 nM	–	0.0565
[4], 3000 nM	–	0.0104
[5], 4.1 nM	–	0.51
[5], 12.3 nM	–	0.559
[5], 37 nM	–	0.488
[5], 111.1 nM	–	0.527
[5], 333.3 nM	–	0.331
[5], 1000 nM	–	0.488
[5], 3000 nM	–	0.214
[6], 4.1 nM	–	0.226
[6], 12.3 nM	–	0.199
[6], 37 nM	–	0.176
[6], 111.1 nM	–	0.106
[6], 333.3 nM	–	0.126
[6], 1000 nM	–	0.122
[6], 3000 nM	–	0.0208
[7], 4.1 nM	–	0.631
[7], 12.3 nM	–	0.549
[7], 37 nM	–	0.534
[7], 111.1 nM	–	0.31
[7], 333.3 nM	–	0.381
[7], 1000 nM	–	0.354
[7], 3000 nM	–	0.144
[8], 4.1 nM	5.19	–
[8], 12.3 nM	5.1	–
[8], 37 nM	4.19	–
[8], 111.1 nM	5.27	–
[8], 333.3 nM	5.59	–
[8], 1000 nM	5.06	–
[8], 3000 nM	6.07	–
[9], 4.1 nM	5.11	–
[9], 12.3 nM	7.13	–
[9], 37 nM	6.25	–
[9], 111.1 nM	6.76	–
[9], 333.3 nM	7.24	–
[9], 1000 nM	6.47	–
[9], 3000 nM	9.02	–
[10], 4.1 nM	4.14	–
[10], 12.3 nM	4.17	–
[10], 37 nM	4.19	–
[10], 111.1 nM	5.37	–
[10], 333.3 nM	4.96	–
[10], 1000 nM	5.04	–
[10], 3000 nM	4.01	–
[11], 4.1 nM	3.76	–
[11], 12.3 nM	3.17	–
[11], 37 nM	4.87	–
[11], 111.1 nM	6.24	–
[11], 333.3 nM	4.82	–
[11], 1000 nM	7.62	–
[11], 3000 nM	10.2	–
[12], 4.1 nM	3.49	–
[12], 12.3 nM	3.06	–
[12], 37 nM	2.17	–
[12], 111.1 nM	4.14	–
[12], 333.3 nM	2.6	–
[12], 1000 nM	3.14	–
[12], 3000 nM	5.46	–
[13], 4.1 nM	7.85	–
[13], 12.3 nM	8.69	–
[13], 37 nM	8.43	–
[13], 111.1 nM	8.17	–
[13], 333.3 nM	5.64	–
[13], 1000 nM	5.25	–
[13], 3000 nM	7.33	–
[14], 4.1 nM	2.41	–
[14], 12.3 nM	2.29	–
[14], 37 nM	3.24	–
[14], 111.1 nM	6.3	–
[14], 333.3 nM	5.37	–
[14], 1000 nM	5.38	–
[14], 3000 nM	7.66	–
